# Source: patent publication US8278455B2, “5- or 6-substituted benzimidazole derivatives as inhibitors of respiratory syncytial virus replication” (Janssen Pharmaceutica N.V., priority 2003, dated 2012)
# Tested on: Respiratory Syncytial Virus
# Test: In vitro screening for activity against Respiratory Syncytial Virus (MTT tetrazolium colorimetric assay, HeLa cells)
# Format: cell-based
# Settings: activity category; protection against RSV cytopathology in HeLa cells, 7 days after infection
# Excerpt: The percent protection against cytopathology caused by viruses (antiviral activity or EC50) achieved by tested compounds and their cytotoxicity (CC50) are both calculated from dose-response curves. The selectivity of the antiviral effect is represented by the selectivity index (SI), calculated by dividing the CC50 (cytotoxic dose for 50% of the cells) by the EC50 (antiviral activity for 50% of the cells). The tables in the above experimental part list the category to which each of the prepared compounds belong. Compounds belonging to activity category “A” have an pEC50 (−log of EC50 when expressed in molar units) equal to or more than 7. Compounds belonging to activity category “B” have a pEC50 value between 6 and 7.
# Automated tetrazolium-based […] assays were used for determination of EC50 and CC50 of test compounds. Flat-bottom, 96-well plastic microtiter trays were filled with 180 μl of Eagle's Basal Medium, supplemented with 5% FCS (0% for FLU) and 20 mM Hepes buffer. Subsequently, stock solutions (7.8× final test concentration) of compounds were added in 45 μl volumes to a series of triplicate wells so as to allow simultaneous evaluation of their effects on virus- and mock-infected cells. Five five-fold dilutions were made directly in the microtiter trays using a robot system. Untreated virus controls, and HeLa cell controls were included in each test. Approximately 100 TCID50 of Respiratory Syncytial Virus was added to two of the three rows in a volume of 50 μl. The same volume of medium was added to the third row to measure the cytotoxicity of the compounds at the same concentrations as those used to measure the antiviral activity. After two hours of incubation, a suspension (4×10^5 cells/ml) of HeLa cells was added to all wells in a volume of 50 μl. The cultures were incubated at 37° C. in a 5% CO2 atmosphere. Seven days after infection the cytotoxicity and the antiviral activity was examined spectrophotometrically. To each well of the microtiter tray, 25 μl of a solution of MTT (3-(4,5-dimethylthiazol-2-yl)-2,5-diphenyltetrazolium bromide) was added. The trays were further incubated at 37° C. for 2 hours, after which the medium was removed from each cup. Solubilization of the formazan crystals was achieved by adding 100 μl 2-propanol. Complete dissolution of the formazan crystals were obtained after the trays have been placed on a plate shaker for 10 min. Finally, the absorbances were read in an eight-channel computer-controlled photometer (Multiskan MCC, Flow Laboratories) at two wavelengths (540 and 690 nm). The absorbance measured at 690 nm was automatically subtracted from the absorbance at 540 nm, so as to eliminate the effects of non-specific absorption.
row,SMILES,Activity
1,CCOC(=O)c1ccc2nc(NC3CCN(Cc4ccccc4)CC3)n(Cc3nc(C)ccc3O)c2c1 [Compound 142],C (pEC50 value equal to or below 6)
2,CCOC(=O)c1ccc2nc(NC3CCNCC3)n(Cc3nc(C)ccc3O)c2c1 [Compound 141],C (pEC50 value equal to or below 6)

# Same assay, conditions: human respiratory syncytial virus, 168 h; protection against RSV cytopathology in HeLa cells, 7 days after infection; pEC50 = −log of EC50 in molar units
row,SMILES,EC50
1,"Cc1cccc(C(=O)Nc2ccc3c(c2)nc(NC2CCN(C)CC2)n3Cc2nc(C)ccc2O)c1 [Compound 78, N-[1-(3-hydroxy-6-methyl-pyridin-2-ylmethyl)-2-(1-methyl-piperidin-4-ylamino)-1H-benzoimidazol-5-yl]-3-methyl-benzamide]",126 nM
2,"Cc1ccc(O)c(Cn2c(NC3CCN(C)CC3)nc3ccc(CNc4cc(Cl)cc(Cl)c4)cc32)n1 [Compound 2, 2-[6-[(3,5-dichloro-phenylamino)-methyl]-2-(1-methyl-piperidin-4-ylamino)-benzoimidazol-1-ylmethyl]-6-methyl-pyridin-3-ol]",2 nM

# Same assay, conditions: protection against RSV cytopathology in HeLa cells, 7 days after infection; pEC50 = −log of EC50 in molar units
row,SMILES,Activity
1,COc1ccc(NCc2ccc3nc(NC4CCN(C)CC4)n(Cc4nc(C)ccc4O)c3c2)cc1OC [Compound 61],7.3
2,CCN(Cc1ccc2nc(NC3CCN(C)CC3)n(Cc3nc(C)ccc3O)c2c1)c1ccccc1 [Compound 62],7.3
3,Cc1ccc(O)c(Cn2c(NC3CCN(C)CC3)nc3ccc(NC(=O)Cc4ccccn4)cc32)n1 [Compound 108],6
4,Cc1cc(C)cc(NCc2ccc3nc(NC4CCN(Cc5ccccc5)CC4)n(Cc4nc(C)ccc4O)c3c2)c1 [Compound 164],7.2
5,Cc1ccc(O)c(Cn2c(NC3CCN(C)CC3)nc3ccc(CNc4cccc(Br)c4)cc32)n1 [Compound 6],8.4
6,CC(=O)c1cccc(NCc2ccc3nc(NC4CCN(C)CC4)n(Cc4nc(C)ccc4O)c3c2)c1 [Compound 19],7.9
7,Cc1ccc(O)c(Cn2c(NC3CCN(C)CC3)nc3ccc(CN(c4ccccc4)c4ccc(O)cc4)cc32)n1 [Compound 16],8
8,Cc1ccc(O)c(Cn2c(NC3CCN(C)CC3)nc3ccc(CNc4c(C)cc(Br)cc4C)cc32)n1 [Compound 87],6.8
9,Cc1ccc(O)c(Cn2c(NC3CCN(C)CC3)nc3ccc(CNc4ccc(F)c(F)c4)cc32)n1 [Compound 50],7.4
10,Cc1ccc(O)c(Cn2c(NC3CCN(C)CC3)nc3ccc(CNc4cccc5cccnc45)cc32)n1 [Compound 31],7.8
11,Cc1ccc(O)c(Cn2c(NC3CCN(C)CC3)nc3ccc(CNc4cccc(Oc5ccccc5)c4)cc32)n1 [Compound 66],7.2
12,Cc1cccc(/C=C/c2ccc3c(c2)nc(NC2CCN(C)CC2)n3Cc2nc(C)ccc2O)c1 [Compound 104],6.2
13,Cc1ccc(O)c(Cn2c(NC3CCN(C)CC3)nc3ccc(CNc4ccc(Br)c(F)c4)cc32)n1 [Compound 69],7.2
14,Cc1ccc(O)c(Cn2c(NC3CCN(C)CC3)nc3ccc(CNc4ccc(F)cc4)cc32)n1 [Compound 26],7.9
15,Cc1cccc(CCc2ccc3c(c2)nc(NC2CCN(CCN)CC2)n3Cc2nc(C)ccc2O)c1.Cl [Compound 158],7.9
16,Cc1ccc(CCc2ccc3nc(NC4CCN(C)CC4)n(Cc4nc(C)ccc4O)c3c2)cc1 [Compound 84],6.8
17,Cc1ccc(O)c(Cn2c(NC3CCN(C)CC3)nc3ccc(CNc4ccc(Br)cc4Cl)cc32)n1 [Compound 89],6.8
18,CCOC(=O)c1ccccc1NCc1ccc2nc(NC3CCN(C)CC3)n(Cc3nc(C)ccc3O)c2c1 [Compound 72],7.1
19,Cc1ccc(O)c(Cn2c(NC3CCN(C)CC3)nc3ccc(CNc4ccccc4)cc32)n1 [Compound 30],7.8
20,COc1cc(NCc2ccc3nc(NC4CCN(C)CC4)n(Cc4nc(C)ccc4O)c3c2)cc(OC)c1 [Compound 36],7.7
21,Cc1ccc(O)c(Cn2c(NC3CCN(C)CC3)nc3cc(NC(=O)c4ccccc4)ccc32)n1 [Compound 90],6.7
22,Cc1ccc(O)c(Cn2c(NC3CCN(C)CC3)nc3ccc(CN(C)c4ccccc4)cc32)n1 [Compound 51],7.4
23,Cc1cccc(NCc2ccc3nc(NC4CCN(CCCO)CC4)n(Cc4nc(C)ccc4O)c3c2)c1 [Compound 156],8.4
24,Cc1ccc(O)c(Cn2c(NC3CCN(C)CC3)nc3ccc(CNc4cccc(C)c4C)cc32)n1 [Compound 20],7.9
25,Cc1ccc(O)c(Cn2c(NC3CCN(C)CC3)nc3cc(C(=O)NCc4ccccn4)ccc32)n1 [Compound 135],<4
26,Cc1ccc(O)c(Cn2c(NC3CCN(C)CC3)nc3ccc(CNc4ccc(Br)cc4C)cc32)n1 [Compound 63],7.3
27,COc1ccc(NCc2ccc3nc(NC4CCN(C)CC4)n(Cc4nc(C)ccc4O)c3c2)cc1F [Compound 67],7.2

row,SMILES,Activity
1,Cc1ccc(O)c(Cn2c(NC3CCN(CCO)CC3)nc3cc(CCc4ccccc4)ccc32)n1 [Compound 168],6.6
2,Cc1ccc(O)c(Cn2c(NC3CCN(C)CC3)nc3ccc(C(=O)NCc4ccco4)cc32)n1 [Compound 119],4.8
3,Cc1cc(C)cc(NCc2ccc3nc(NCC4COC(C)(C)O4)n(Cc4nc(C)ccc4O)c3c2)c1 (stereo not shown) [Compound 184],<4
4,Cc1ccc(O)c(Cn2c(NCCCN3CCN(C)CC3)nc3ccc(CO)cc32)n1 [Compound 178],6.5
5,Cc1ccc(O)c(Cn2c(NC3CCN(C)CC3)nc3ccc(CNc4cc(Cl)c(Cl)cc4Cl)cc32)n1 [Compound 77],7
6,Cc1ccc(O)c(Cn2c(NC3CCN(C)CC3)nc3ccc(CNc4ccc5c(c4)CCC5)cc32)n1 [Compound 45],7.5
7,Cc1ccc(O)c(Cn2c(NC3CCN(C)CC3)nc3ccc(CN(CCO)Cc4ccccc4)cc32)n1 [Compound 85],6.8
8,CCc1cccc(CC)c1NCc1ccc2nc(NC3CCN(C)CC3)n(Cc3nc(C)ccc3O)c2c1 [Compound 52],7.4
9,Cc1cc(C)c(NCc2ccc3nc(NC4CCN(C)CC4)n(Cc4nc(C)ccc4O)c3c2)c(Cl)c1 [Compound 88],6.8
10,Cc1ccc(O)c(Cn2c(NC3CCN(C)CC3)nc3ccc(NC(=O)CCc4ccccc4)cc32)n1 [Compound 106],6.1
11,Cc1cc(C)cc(NCc2ccc3nc(NC4CCN(C)CC4)n(Cc4nc(C)ccc4O)c3c2)c1 [Compound 3],8.6
12,Cc1ccc(O)c(Cn2c(NC3CCN(CCO)CC3)nc3ccc(CCc4ccccc4)cc32)n1 [Compound 162],7.5
13,COc1ccc(CCNc2nc3cc(CNc4cc(C)cc(C)c4)ccc3n2Cc2nc(C)ccc2O)cc1 [Compound 191],<4
14,Cc1ccc(O)c(Cn2c(NC3CCN(C)CC3)nc3ccc(CNc4ccccc4CO)cc32)n1 [Compound 7],8.4
15,COCCN(CCOC)Cc1ccc2nc(NC3CCN(C)CC3)n(Cc3nc(C)ccc3O)c2c1 [Compound 102],6.4
16,Cc1ccc(O)c(Cn2c(NC3CCN(C)CC3)nc3cc(C(=O)NCc4ccco4)ccc32)n1 [Compound 118],4.9
17,Cc1cc(C)cc(NCc2ccc3nc(NCCc4ccccc4)n(Cc4nc(C)ccc4O)c3c2)c1 [Compound 187],<4
18,CSc1cccc(NCc2ccc3nc(NC4CCN(C)CC4)n(Cc4nc(C)ccc4O)c3c2)c1 [Compound 25],7.9
19,Cc1ccc(O)c(Cn2c(NC3CCN(C)CC3)nc3ccc(CN4CCOC(CCO)C4)cc32)n1 (stereo not shown) [Compound 97],6.6
20,Cc1ccc(O)c(Cn2c(NC3CCN(C)CC3)nc3ccc(CN4CCOCC4)cc32)n1 [Compound 98],6.5
21,Cc1ccc(O)c(Cn2c(NC3CCN(C)CC3)nc3ccc(CNc4ccc(CC#N)cc4)cc32)n1 [Compound 34],7.8
22,Cc1ccc(O)c(Cn2c(NC3CCN(CCO)CC3)nc3ccc(CCC#N)cc32)n1 [Compound 161],7.8
23,CCOC(=O)c1ccc2c(c1)nc(NC1CCN(Cc3ccccc3)CC1)n2Cc1nc(C)ccc1O [Compound 140],<4
24,Cc1ccc(O)c(Cn2c(NC3CCN(C)CC3)nc3ccc(CN(C)CCc4ccccc4)cc32)n1 [Compound 105],6.2
25,Cc1cccc(SCc2ccc3c(c2)nc(NC2CCN(C)CC2)n3Cc2nc(C)ccc2O)c1 [Compound 132],<4
26,Cc1ccc(O)c(Cn2c(NC3CCN(C)CC3)nc3ccc(CN(CCC#N)CCC#N)cc32)n1 [Compound 137],<4
27,Cc1cccc(NCc2ccc3c(c2)nc(NC2CCN(C)CC2)n3Cc2nc(C)ccc2O)c1 [Compound 130],4.6
